Reference: US10227331B2 (priority 2015, dated 2019)

Columns and labels:
IMP-1 = IMP-1 (Serratia marcescens, UniProt P52699); experiment: biochemical; type: biochemical; settings: CCF2-FA substrate, 2 hours at 25° C; read-out: IMP-1 IC50
How it was run: (§1)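 Fluorescence assay of metallo-β-lactamase activity using CCF2-FA, a cephalosporin-linked 7-hydroxycoumarin–fluorescein substrate. Inhibitor, enzyme and substrate were incubated together for 2 hours at 25° C. IC50 came from a 4-parameter fit of inhibition versus inhibitor concentration.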

NDM-1 = NDM-1 (Klebsiella pneumoniae, UniProt C7C422); experiment: biochemical; type: biochemical; settings: CCF2-FA substrate, 2 hours at 25° C; read-out: NDM-1 IC50
How it was run: as §1

VIM-1 = VIM-1 (Pseudomonas aeruginosa (strain ATCC 15692 / DSM 22644 / CIP 104116 / JCM 14847 / LMG 12228 / 1C / PRS 101 / PAO1), UniProt A0A0F7KYQ8); experiment: biochemical; settings: CCF2-FA substrate, 2 hours at 25° C
How it was run: as §1

[1] = test system: Escherichia coli expressing NDM-1 (CLB30005, CLB30016); type: cell-based; settings: with imipenem 1 μg/ml, 95% inhibition of bacterial growth
How it was run: (§2)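 Clinical strains grown overnight on blood agar, then diluted 1:100 in 1.1× CAMHB and exposed to test compound with imipenem at 1 μg/ml. Incubation was 22–24 h at 35° C; growth was read by absorbance to find the compound concentration restoring imipenem susceptibility.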

[2] = test system: Klebsiella pneumoniae expressing VIM-1 (IHMA599644); type: cell-based; settings: with imipenem 1 μg/ml, 95% inhibition of bacterial growth
How it was run: as §2

[3] = test system: Serratia marcescens expressing IMP-1 (CL5741); type: cell-based; settings: with imipenem 1 μg/ml, 95% inhibition of bacterial growth
How it was run: as §2

[4] = test system: P. aeruginosa expressing IMP-1, efflux+ (MB9798); type: cell-based, Pseudomonas aeruginosa; settings: for P. aeruginosa expressing IMP-1, efflux+ (MB9798) MITC95: imipenem at 2 μg/mL, in the presence of a class A, C, D serine β-lactamase inhibitor closely related to relebactam; for Efflux ratio: ratio MITC95 PA_9798/MITC95 PA_9799
Source text: (§3) The strain background is Pseudomonas aeruginosa PAO1.

[5] = test system: P. aeruginosa expressing IMP-1, efflux− (MB9799); experiment: Efflux: concentration of MBL inhibitor which restores susceptibility to imipenem; type: cell-based, Pseudomonas aeruginosa; settings: imipenem at 2 μg/mL, in the presence of a class A, C, D serine β-lactamase inhibitor closely related to relebactam
Source text: as §3

IMP-1, sequence (P52699 whole entry, looked up, species assumed): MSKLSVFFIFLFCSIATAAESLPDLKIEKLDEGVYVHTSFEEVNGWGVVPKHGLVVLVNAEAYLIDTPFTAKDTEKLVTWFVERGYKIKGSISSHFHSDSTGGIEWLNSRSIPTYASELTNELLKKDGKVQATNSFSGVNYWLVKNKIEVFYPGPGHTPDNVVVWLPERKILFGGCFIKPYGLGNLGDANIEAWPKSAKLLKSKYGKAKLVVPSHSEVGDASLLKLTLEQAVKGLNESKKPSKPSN
NDM-1, sequence (C7C422 whole entry, looked up, species assumed): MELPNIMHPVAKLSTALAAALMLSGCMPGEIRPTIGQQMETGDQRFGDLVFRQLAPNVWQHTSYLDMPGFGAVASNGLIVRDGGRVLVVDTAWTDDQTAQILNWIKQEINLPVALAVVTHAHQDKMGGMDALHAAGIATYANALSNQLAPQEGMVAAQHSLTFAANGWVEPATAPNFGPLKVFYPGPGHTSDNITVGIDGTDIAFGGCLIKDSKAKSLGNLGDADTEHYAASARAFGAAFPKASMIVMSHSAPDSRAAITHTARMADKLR

SMILES: Nc1nc2c(-c3ccc(S(=O)(=O)C4CNC4)c(S(N)(=O)=O)c3-c3nn[nH]n3)cccc2c(=O)[nH]1 [Example 37, 3-(2-amino-4-oxo-3,4-dihydroquinazolin-8-yl)-6-(azetidin-3-ylsulfonyl)-2-(2H-tetrazol-5-yl)benzenesulfonamide]
- IC50 (IMP-1): 1.9 nM
- IC50 (NDM-1): 0.081 nM
- IC50 (VIM-1): 0.348 nM
- Escherichia coli expressing NDM-1 (CLB30016) MITC95 [1]: 25 µM
- Klebsiella pneumoniae expressing VIM-1 (IHMA599644) MITC95 [2]: 6.25 µM
- Serratia marcescens expressing IMP-1 (CL5741) MITC95 [3]: 3.125 µM
- P. aeruginosa expressing IMP-1, efflux+ (MB9798) MITC95 [4]: 3.125 µM
- Efflux ratio [4]: 2.00
- P. aeruginosa expressing IMP-1, efflux− (MB9799) MITC95 [5]: 1.563 µM

SMILES: Nc1nc2c(-c3ccc(S(=O)(=O)[C@H]4C[C@H](N)C4)c(S(N)(=O)=O)c3-c3nn[nH]n3)cccc2s1 [Example 179]
- IC50 (IMP-1): 0.135 nM
- IC50 (NDM-1): 0.106 nM
- IC50 (VIM-1): 0.322 nM
- Escherichia coli expressing NDM-1 (CLB30016) MITC95 [1]: 0.7813 µM
- Klebsiella pneumoniae expressing VIM-1 (IHMA599644) MITC95 [2]: 1.563 µM
- Serratia marcescens expressing IMP-1 (CL5741) MITC95 [3]: 1.563 µM
- P. aeruginosa expressing IMP-1, efflux+ (MB9798) MITC95 [4]: 0.7813 µM
- Efflux ratio [4]: 0.50
- P. aeruginosa expressing IMP-1, efflux− (MB9799) MITC95 [5]: 1.563 µM

SMILES: NS(=O)(=O)c1c(S(=O)(=O)C2CNC2)ccc(-c2cccn3cc(C(=O)O)nc23)c1-c1nnn[nH]1 [Example 61, 8-(4-(Azetidin-3-ylsulfonyl)-3-sulfamoyl-2-(1H-tetrazol-5-yl)phenyl)imidazo[1,2-a]pyridine-2-carboxylic Acid]
- IC50 (IMP-1): 2.22 nM
- IC50 (NDM-1): 0.254 nM
- IC50 (VIM-1): 0.677 nM
- Escherichia coli expressing NDM-1 (CLB30016) MITC95 [1]: 12.5 µM
- Klebsiella pneumoniae expressing VIM-1 (IHMA599644) MITC95 [2]: 25 µM
- Serratia marcescens expressing IMP-1 (CL5741) MITC95 [3]: 6.25 µM
- P. aeruginosa expressing IMP-1, efflux+ (MB9798) MITC95 [4]: 12.5 µM
- Efflux ratio [4]: 1.00
- P. aeruginosa expressing IMP-1, efflux− (MB9799) MITC95 [5]: 12.5 µM

SMILES: COc1ccc(Cc2cc3c(-c4ccc(S(=O)(=O)C5CNC5)c(S(N)(=O)=O)c4-c4nnn[nH]4)cccc3n2C)cc1 [Example 230, 6-(azetidin-3-ylsulfonyl)-3-(2-(4-methoxybenzyl)-1-methyl-1H-indol-4-yl)-2-(1H-tetrazol-5-yl)benzenesulfonamide]
- IC50 (IMP-1): 0.436 nM
- IC50 (NDM-1): 0.11 nM
- IC50 (VIM-1): 0.356 nM
- Escherichia coli expressing NDM-1 (CLB30016) MITC95 [1]: 6.25 µM
- Klebsiella pneumoniae expressing VIM-1 (IHMA599644) MITC95 [2]: 25 µM
- Serratia marcescens expressing IMP-1 (CL5741) MITC95 [3]: 6.25 µM
- P. aeruginosa expressing IMP-1, efflux+ (MB9798) MITC95 [4]: 100 µM
- Efflux ratio [4]: 32.00
- P. aeruginosa expressing IMP-1, efflux− (MB9799) MITC95 [5]: 3.125 µM

SMILES: Nc1nc2c(-c3ccc(S(=O)(=O)C4CNC4)c(S(N)(=O)=O)c3-c3nn[nH]n3)cccc2n1CCO [Example 373, 3-(2-Amino-1-(2-hydroxyethyl)-1H-benzo[d]imidazol-4-yl)-6-(azetidin-3-ylsulfonyl)-2-(2H-tetrazol-5-yl)benzenesulfonamide]
- IC50 (IMP-1): 0.409 nM
- IC50 (NDM-1): 0.139 nM
- IC50 (VIM-1): 0.248 nM
- Escherichia coli MITC95 ([1]; NDM-1 (CLB30016)): 0.7813 µM
- Klebsiella pneumoniae MITC95 ([2]; VIM-1 (IHMA599644)): 3.125 µM
- Serratia marcescens MITC95 ([3]; IMP-1 (CL5741)): 1.563 µM
- P. aeruginosa expressing IMP-1, efflux+ (MB9798) MITC95 [4]: 1.563 µM
- Efflux ratio [4]: 1.00
- P. aeruginosa expressing IMP-1, efflux− (MB9799) MITC95 [5]: 1.563 µM

SMILES: Cc1ccc(-c2ccc(S(=O)(=O)CCN)c(S(N)(=O)=O)c2-c2nn[nH]n2)c2nc(N)[nH]c12 [Example 23, 3-(2-amino-7-methyl-1H-benzo[d]imidazol-4-yl)-6-((2-aminoethyl)sulfonyl)-2-(2H-tetrazol-5-yl)benzenesulfonamide]
- IC50 (IMP-1): 0.352 nM
- IC50 (NDM-1): 0.123 nM
- IC50 (VIM-1): 0.0986 nM
- Escherichia coli expressing NDM-1 (CLB30016) MITC95 [1]: 0.3906 µM
- Klebsiella pneumoniae expressing VIM-1 (IHMA599644) MITC95 [2]: 0.7813 µM
- Serratia marcescens expressing IMP-1 (CL5741) MITC95 [3]: 0.7813 µM
- P. aeruginosa expressing IMP-1, efflux+ (MB9798) MITC95 [4]: 0.7813 µM
- Efflux ratio [4]: 2.00
- P. aeruginosa expressing IMP-1, efflux− (MB9799) MITC95 [5]: 0.3906 µM

SMILES: NS(=O)(=O)c1c(S(=O)(=O)C2CCNCC2)ccc([C@H]2CC[C@@H](N)CC2)c1-c1nnn[nH]1 [Example 208, 3-((1s,4s)-4-aminocyclohexyl)-6-(piperidin-4-ylsulfonyl)-2-(1H-tetrazol-5-yl) benzenesulfonamide]
- IC50 (IMP-1): 124 nM
- IC50 (NDM-1): 20.6 nM
- IC50 (VIM-1): 18.6 nM
- Escherichia coli expressing NDM-1 (CLB30016) MITC95 [1]: 1.563 µM
- Klebsiella pneumoniae expressing VIM-1 (IHMA599644) MITC95 [2]: 6.25 µM
- Serratia marcescens expressing IMP-1 (CL5741) MITC95 [3]: 3.125 µM
- P. aeruginosa expressing IMP-1, efflux+ (MB9798) MITC95 [4]: 6.25 µM
- Efflux ratio [4]: 2.00
- P. aeruginosa expressing IMP-1, efflux− (MB9799) MITC95 [5]: 3.125 µM

SMILES: Nc1nc2c(-c3ccc(S(=O)(=O)[C@H]4CCNC4)c(S(N)(=O)=O)c3-c3nn[nH]n3)cccc2s1 [Example 184, 3-(2-aminobenzo[d]thiazol-4-yl)-6-((S)-pyrrolidin-3-ylsulfonyl)-2-(2H-tetrazol-5-yl)benzenesulfonamide]
- IC50 (IMP-1): 0.243 nM
- IC50 (NDM-1): 0.0925 nM
- IC50 (VIM-1): 0.262 nM
- Escherichia coli expressing NDM-1 (CLB30016) MITC95 [1]: 0.7813 µM
- Klebsiella pneumoniae expressing VIM-1 (IHMA599644) MITC95 [2]: 1.563 µM
- Serratia marcescens expressing IMP-1 (CL5741) MITC95 [3]: 0.7813 µM
- P. aeruginosa expressing IMP-1, efflux+ (MB9798) MITC95 [4]: 0.7813 µM
- Efflux ratio [4]: 1.00
- P. aeruginosa expressing IMP-1, efflux− (MB9799) MITC95 [5]: 0.7813 µM

SMILES: Nc1nc2cccc(-c3ccc(S(=O)(=O)[C@H]4C[C@@H](N)C4)c(S(N)(=O)=O)c3-c3nn[nH]n3)c2[nH]1 [Example 176, 3-(2-amino-3H-benzo[d]imidazol-4-yl)-6-((1s, 3s)-3-aminocyclobutylsulfonyl)-2-(2H-tetrazol-5-yl)benzenesulfonamide]
- IC50 (IMP-1): 1.09 nM
- IC50 (NDM-1): 0.25 nM
- IC50 (VIM-1): 0.831 nM
- Escherichia coli expressing NDM-1 (CLB30016) MITC95 [1]: 0.7813 µM
- Klebsiella pneumoniae expressing VIM-1 (IHMA599644) MITC95 [2]: 1.563 µM
- Serratia marcescens expressing IMP-1 (CL5741) MITC95 [3]: 0.7813 µM
- P. aeruginosa expressing IMP-1, efflux+ (MB9798) MITC95 [4]: 0.7813 µM
- Efflux ratio [4]: 1.00
- P. aeruginosa expressing IMP-1, efflux− (MB9799) MITC95 [5]: 0.7813 µM
